The source of these data is patent US8349316B2, “Lactobacillus fermentum SG-A95 for improving oral bacterial groups and health care compositions thereof” (priority 2010, dated 2013).

The test system of experiment [1] is artificially induced periodontal disease (ligature wire, Streptococcus mutans inoculated in gum tissue). Put plainly: Evaluation of therapeutic effect for animal periodontal disease. The class given is in vivo, Balb/c mice. To be noted: treatment group; for mice periodontal pocket depth: mean±S.D. On the procedure: (§1) This trial included treatment groups and control groups. The-treatment group of Lactobacillus fermentum SG-A95 were divided into 6 groups as follows: 3 groups of dialyzed Lactobacillus fermentum SG-A95 fermentation product concentrate such as 4-fold, 2-fold, and 1-fold (unconcentrated fermentation broth) and 3 groups of Lactobacillus fermentum SG-A95 in various numbers of bacteria such as 1×10^9, 2×10^9 and 5×10^9. Two control groups were treated with 0.267 mg/mL of tetracycline and distilled water.
Twelve of 8-week-old female Balb/c mice were selected for each group (Table 3). […] After diagnosis of diseased tissue by chief dentists, they were administered different concentrations of Lactobacillus fermentum SG-A95 fermentation product, live Lactobacillus fermentum SG-A95, 1 mL of 0.267 mg/mL tetracycline or distill water every day. The symptoms were recorded. The wire was removed at the beginning of the treatment and stop periodontal pathogen inoculation. At day 4, 8, 12, and 16 after wire removal, mice periodontal pocket depth was examined. 3 mice from each group were killed for blood sampling and histological analysis.
(§2) Control group was used as a standard to examine subjects from each group by Mann-Whitney test.
(§3) Experimental data was shown as mean±S.D. The statistical variation of treatment groups and control groups of mice periodontal pocket was performed by One-Way ANOVA and Dunnett multiple post hoc comparison in longitudinal study, and by One-Way ANOVA and LSD multiple post hoc comparison in cross-sectional study. Besides, Mann-Whitney test was used to examine the number of periodontal pocket improving individuals. The statistical significance level of p value was 0.05.

For experiment [2] the test system is unchanged. Put plainly: Evaluation of preventive effect for animal periodontal disease. The class given is in vivo, Balb/c mice. The following applies: prevention group; for mice periodontal pocket depth: mean±S.D., listed as pTC. As for the experimental part:
as §1
Twelve of 8-week-old female Balb/c mice were selected for each group (Table 2). The mice were administered with various concentrations of Lactobacillus fermentum SG-A95 fermentation product or live Lactobacillus fermentum SG-A95, and 1 mL of 0.267 mg/mL tetracyccline or distilled water separately. […] Their pathological symptoms were observed and recorded until sacrificing all animals. Until the control group (feeding with distilled water, mock-treated group) showing gum swelling and dental plaque appearance diagnosed by chief dentists, the ligature wire was removed and inoculation of dental pathogen was stopped. At day 4, 8, 12, and 16 after wire removal, mice periodontal pocket depth was examined, 3 mice from each group were killed for blood sampling and samples were collected for histological analysis.
as §2, §3

For experiment [3], the system named is Actinomyces viscosus (ATCC 15987). Put plainly: Disc agar diffusion test. In kind it is cell-based. To be noted: 6 mm paper disc, 37, anaerobic, 24 hours, mean±S.D. (n=3); zone not over 6 mm = negative. As for the experimental part:
(§4) Lactobacillus fermentum SG-[…] was cultured in liquid medium. MRS medium was used in this embodiment. […]. The fermentation broth was concentrated into 30-fold of original concentration and dialyzed with SPECTRA/POR® Dialysis Membrane (MWCO:3500, Spectrum Laboratories Inc, CA) for 48 hours. Lactobacillus fermentum SG-[…] and concentrate fermentation product were diluted into various concentrations according to experimental requirements. Disc agar diffusion test, broth dilution method, and co-cultivation test of Lactobacillus fermentum SG-[…] with Streptococcus mutans (ATCC 25175), Streptococcus sanguis (ATCC 49295), Porphyromonas gingivalis (ATCC 33277), and Actinomyces viscosus (ATCC 15987) were separately performed to understand the inhibition of pathogen growth. Above four pathogens strains were purchased from Bioresource Collection and Research Center of Food Industry Research and Development Institute in Taiwan or ATCC. […] Dip bacteria culture with sterile cotton swab for 3 seconds, and each bacteria was smeared on agar plates in three directions to evenly distribute the incoculum. After dialyzing 30-fold fermentation product of Lactobacillus fermentum SG-[…], adjust concentrate to 4-fold concentrate (LFP4), 2-fold concentrate (LFP2) and 1-fold (LFP1) (unconcentrated fermentation broth). […] The diameter of sterile paper disc was 6 mm. The positive bacterial inhibition effect was determined by over 6 mm bacterial inhibition zone. Otherwise, it was defined as negative bacterial inhibition effect. The cultural condition was under the temperature of 37 for 24 hours. The paper disc was used in control group containing tetracycline. The inhibition zone value was shown as mean±S.D. (n=3).

The subject of experiment [4] is Porphyromonas gingivalis (ATCC 33277). Put plainly: Disc agar diffusion test. The following applies: 6 mm paper disc, 37, anaerobic, 24 hours, mean±S.D. (n=3); zone not over 6 mm = negative. In kind it is cell-based. On the procedure: as §4
(In general: In agar diffusion tests the substance spreads into inoculated agar from a disc or well.)

Experiment [5] relates to Streptococcus mutans (ATCC 25175). Put plainly: Disc agar diffusion test. The class given is cell-based. The following applies: 6 mm paper disc, 37, anaerobic, 24 hours, mean±S.D. (n=3); zone not over 6 mm = negative. As for the experimental part:
as §4

Experiment [6] concerns Streptococcus sanguis (ATCC 49295). Put plainly: Disc agar diffusion test. The class given is cell-based. To be noted: 6 mm paper disc, 37, anaerobic, 24 hours, mean±S.D. (n=3); zone not over 6 mm = negative. As for the experimental part:
as §4

As to `CN(C)[C@@H]1C(O)=C(C(N)=O)C(=O)[C@@]2(O)C(O)=C3C(=O)c4c(O)cccc4[C@@](C)(O)[C@H]3C[C@@H]12` [tetracycline], the “periodontal pocket improvement percentage (percentage of improving individual)” value in experiment [1] (Day 4, against tMT by Mann-Whitney test) is on record as 30%; in experiment [1] (Day 8, against tMT by Mann-Whitney test), 20%; in experiment [1] (Day 12, against tMT by Mann-Whitney test), 47%; in experiment [1] (Day 16, against tMT by Mann-Whitney test), 33%; in experiment [2] (Day 4, against pMT by Mann-Whitney test), 62%; in experiment [2] (Day 8, against pMT by Mann-Whitney test) it was 50%. Also, the “periodontal pocket improvement percentage (percentage of improving individual)” value in experiment [2] (Day 12, against pMT by Mann-Whitney test) stood at 71%; in experiment [2] (Day 16, against pMT by Mann-Whitney test), 100%. For the same compound, the “mice periodontal pocket depth” value in experiment [1] (Day 4 after wire removal, listed as pTC) came to 1.05 ± 0.64 mm; in experiment [1] (Day 4 after wire removal, listed as tTC), 1.05 ± 0.64 mm; in experiment [1] (Day 8 after wire removal, listed as pTC), 0.89 ± 0.44 mm; in experiment [1] (Day 8 after wire removal, listed as tTC), 0.89 ± 0.44 mm; in experiment [1] (Day 12 after wire removal) it was 0.63 ± 0.37 mm; in experiment [1] (Day 16 after wire removal, listed as pTC), 0.61 ± 0.34 mm. The “mice periodontal pocket depth” value in experiment [1] (Day 16 after wire removal, listed as tTC) is listed as 0.48 ± 0.33 mm; in experiment [2] (Day 4 after wire removal) it was 0.84 ± 0.50 mm; in experiment [2] (Day 8 after wire removal), 0.70 ± 0.34 mm; in experiment [2] (Day 12 after wire removal) it was 0.56 ± 0.26 mm; in experiment [2] (Day 16 after wire removal) it was 0.49 ± 0.25 mm. Further, the “Bacterial inhibition zone, Actinomyces viscosus” value in experiment [3] was 48.2 ± 2.4 mm. In addition, the “Bacterial inhibition zone, Porphyromonas gingivalis” value in experiment [4] came out at 33.4 ± 2.2 mm. In experiment [5], the “Bacterial inhibition zone, Streptococcus mutans” value turned out to be 29.7 ± 2.0 mm. Further, the “Bacterial inhibition zone, Streptococcus sanguis” value in experiment [6] came to 25.9 ± 1.2 mm.
